Laboratory results reported in patent US20250152585A1, “PHARMACEUTICAL COMPOUND” (Duke Street Bio Limited, priority 2022, published 2025).

How the values were obtained:
[1] = target: T1, N-terminally FLAG-tagged PARP2 (amino acids 1-583) (Homo sapiens, UniProt Q9UGN5); assay: PARP2 probe displacement HTRF assay; type: binding; details: binned Kd, PARP2 probe displacement HTRF
T1 construct: N-terminally FLAG-tagged PARP2 (amino acids 1-583)
Method: Data analysis was performed identical as for PARP1.

[2] = target: T2, full length N-terminally FLAG-tagged PARP1 (Homo sapiens, UniProt P09874); assay: PARP1 probe displacement HTRF assay; details: for Selectivity: PARP1 over PARP2, ratio Kd (PARP2)/Kd (PARP1), probe displacement HTRF; for Kd: read-out: PARP1 HTRF, binned Kd, PARP1 probe displacement HTRF
[3] = target: T2, full length N-terminally FLAG-tagged PARP1; assay: PARP1 biochemical DELFIA assay (auto-PARylation); parameters: recombinant full length human N-terminally FLAG-tagged PARP1; details: binned IC50, PARP1 biochemical DELFIA assay

T1 sequence (Q9UGN5 whole entry, the tested form may be a part): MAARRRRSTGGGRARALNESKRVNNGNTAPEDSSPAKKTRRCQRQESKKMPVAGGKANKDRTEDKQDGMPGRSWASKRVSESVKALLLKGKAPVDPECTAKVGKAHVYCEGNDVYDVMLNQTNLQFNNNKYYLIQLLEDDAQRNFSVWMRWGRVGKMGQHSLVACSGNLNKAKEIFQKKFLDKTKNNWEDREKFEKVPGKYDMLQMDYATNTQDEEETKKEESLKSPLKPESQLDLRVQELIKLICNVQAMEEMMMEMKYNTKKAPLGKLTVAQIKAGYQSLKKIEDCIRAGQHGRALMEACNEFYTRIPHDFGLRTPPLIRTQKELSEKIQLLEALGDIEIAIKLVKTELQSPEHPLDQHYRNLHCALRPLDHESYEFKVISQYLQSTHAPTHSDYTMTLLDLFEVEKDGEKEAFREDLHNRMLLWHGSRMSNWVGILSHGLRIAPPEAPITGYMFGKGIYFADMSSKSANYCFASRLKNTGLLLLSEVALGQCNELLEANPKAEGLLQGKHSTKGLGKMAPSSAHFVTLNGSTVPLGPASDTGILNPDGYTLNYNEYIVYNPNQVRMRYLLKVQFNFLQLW
T2 sequence (P09874 whole entry): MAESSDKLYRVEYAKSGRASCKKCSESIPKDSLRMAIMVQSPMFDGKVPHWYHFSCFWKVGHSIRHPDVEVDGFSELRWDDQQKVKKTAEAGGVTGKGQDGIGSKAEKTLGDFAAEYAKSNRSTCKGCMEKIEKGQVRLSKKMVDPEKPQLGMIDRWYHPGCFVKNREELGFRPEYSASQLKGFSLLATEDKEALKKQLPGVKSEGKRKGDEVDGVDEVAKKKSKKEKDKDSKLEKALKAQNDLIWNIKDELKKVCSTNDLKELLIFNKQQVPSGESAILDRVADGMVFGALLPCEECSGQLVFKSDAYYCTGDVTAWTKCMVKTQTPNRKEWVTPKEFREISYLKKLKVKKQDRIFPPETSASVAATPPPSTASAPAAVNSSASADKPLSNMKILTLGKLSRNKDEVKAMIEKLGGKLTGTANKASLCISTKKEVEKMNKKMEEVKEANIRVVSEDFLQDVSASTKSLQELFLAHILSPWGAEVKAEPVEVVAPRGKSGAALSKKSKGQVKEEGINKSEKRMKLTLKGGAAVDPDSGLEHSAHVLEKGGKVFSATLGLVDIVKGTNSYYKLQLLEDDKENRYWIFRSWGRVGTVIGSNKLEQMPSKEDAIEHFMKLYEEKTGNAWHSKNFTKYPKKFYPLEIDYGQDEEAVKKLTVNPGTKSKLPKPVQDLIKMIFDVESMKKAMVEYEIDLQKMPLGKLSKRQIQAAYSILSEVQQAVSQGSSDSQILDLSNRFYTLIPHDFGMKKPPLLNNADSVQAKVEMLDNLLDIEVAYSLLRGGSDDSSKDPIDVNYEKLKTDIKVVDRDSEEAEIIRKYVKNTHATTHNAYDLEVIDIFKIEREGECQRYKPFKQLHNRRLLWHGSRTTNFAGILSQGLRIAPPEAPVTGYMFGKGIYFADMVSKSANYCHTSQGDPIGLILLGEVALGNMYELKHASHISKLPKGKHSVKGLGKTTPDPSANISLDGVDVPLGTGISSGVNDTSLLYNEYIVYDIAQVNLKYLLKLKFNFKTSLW

Row | Compound | Kd [1] | Selectivity [2] | Kd [2] | IC50 [3]
1 | CNC(=O)c1ccc(N2CCC(N3CCOC(c4nc5ccccc5c(=O)[nH]4)C3)CC2)cn1 (single isomer, unassigned) [Compound 58a] | > 10000 nM | +++ (+++ indicate a value of at least 100) | < 10 nM | < 10 nM
2 | CNC(=O)c1ccc(N2CCC(N3CCOC(c4nc5ccccc5c(=O)[nH]4)C3)CC2)cn1 (single isomer, unassigned) [Compound 58b] | > 10000 nM | ++ (++ indicates a value of 50 to less than 100) | 10 to 100 nM | 10 to 100 nM
3 | CNC(=O)c1ccc(N2CCC(N3CCC(c4nc5ncccc5c(=O)[nH]4)C3)CC2)cn1 (single isomer, unassigned) [Compound 60a] | > 10000 nM | +++ (+++ indicate a value of at least 100) | < 10 nM | < 10 nM
4 | CNC(=O)c1ccc(N2CCC(N3CCC(c4nc5ncccc5c(=O)[nH]4)C3)CC2)cn1 (single isomer, unassigned) [Compound 60b] | > 10000 nM | ++ (++ indicates a value of 50 to less than 100) | 10 to 100 nM | 100 to 1000 nM
5 | CNC(=O)c1ccc(N2CC(N3CCC(c4nc5ccccc5c(=O)[nH]4)C3)C2)cn1 (single isomer, unassigned) [Compound 61a] | 1000 to 10000 nM | + (+ indicates a value of 10 to less than 50) | 10 to 100 nM | 100 to 1000 nM
6 | CNC(=O)c1ccc(N2CC(N3CCC(c4nc5ccccc5c(=O)[nH]4)C3)C2)cn1 (single isomer, unassigned) [Compound 61b] | 1000 to 10000 nM | +++ (+++ indicate a value of at least 100) | < 10 nM | < 10 nM
7 | CNC(=O)c1ccc(OCCN2CCC(c3nc4ccccc4c(=O)[nH]3)C2)cn1 (single isomer, unassigned) [Compound 62a] | 1000 to 10000 nM | ++ (++ indicates a value of 50 to less than 100) | 10 to 100 nM | 10 to 100 nM
8 | CNC(=O)c1ccc(OCCN2CCC(c3nc4ccccc4c(=O)[nH]3)C2)cn1 (single isomer, unassigned) [Compound 62b] | 1000 to 10000 nM | − (− indicates a value of less than 10) | 100 to 1000 nM | 100 to 1000 nM
9 | CNC(=O)c1ccc(N2CCC(N3CCC(c4nc5ccc(F)cc5c(=O)[nH]4)C3)CC2)cn1 (single isomer, unassigned) [Compound 64a] | 100 to 1000 nM | + (+ indicates a value of 10 to less than 50) | < 10 nM | < 10 nM
10 | CNC(=O)c1ccc(OCCN2CCCC(c3nc4ccccc4c(=O)[nH]3)C2)cn1 (single isomer, unassigned) [Compound 65a] | 100 to 1000 nM | +++ (+++ indicate a value of at least 100) | < 10 nM | < 10 nM
11 | CNC(=O)c1ccc(OCCN2CCCC(c3nc4ccccc4c(=O)[nH]3)C2)cn1 (single isomer, unassigned) [Compound 65b] | 1000 to 10000 nM | + (+ indicates a value of 10 to less than 50) | 100 to 1000 nM | 100 to 1000 nM
12 | CNC(=O)c1ccc(N2CCC(N3CCCC(C)(c4nc5ccccc5c(=O)[nH]4)C3)CC2)cn1 (single isomer, unassigned) [Compound 66a] | > 10000 nM | − (− indicates a value of less than 10) | 1000 to 10000 nM | 1000 to 10000 nM
13 | CNC(=O)c1ccc(N2CCC(N3CCCC(C)(c4nc5ccccc5c(=O)[nH]4)C3)CC2)cn1 (single isomer, unassigned) [Compound 66b] | > 10000 nM | − (− indicates a value of less than 10) | 1000 to 10000 nM | 1000 to 10000 nM
14 | CNC(=O)c1ccc(N2CCC(N3CCC(C)(c4nc5ccccc5c(=O)[nH]4)C3)CC2)cn1 (single isomer, unassigned) [Compound 67a] | 1000 to 10000 nM | + (+ indicates a value of 10 to less than 50) | 100 to 1000 nM | 100 to 1000 nM
15 | CNC(=O)c1ccc(N2CCC(N3CCC(C)(c4nc5ccccc5c(=O)[nH]4)C3)CC2)cn1 (single isomer, unassigned) [Compound 67b] | 1000 to 10000 nM | + (+ indicates a value of 10 to less than 50) | 100 to 1000 nM | 100 to 1000 nM
16 | CNC(=O)c1ccc(N2CCC(N3CCC(c4nc5ccc(Cl)cc5c(=O)[nH]4)C3)CC2)cn1 (single isomer, unassigned) [Compound 68b] | 100 to 1000 nM | + (+ indicates a value of 10 to less than 50) | < 10 nM | 10 to 100 nM
17 | N#Cc1ccc(N2CCC(N3CCC(c4nc5ccccc5c(=O)[nH]4)C3)CC2)cn1 (single isomer, unassigned) [Compound 69a] | 100 to 1000 nM | ++ (++ indicates a value of 50 to less than 100) | 10 to 100 nM | < 10 nM

Row | Compound | Kd [1] | Selectivity [2] | Kd [2] | IC50 [3]
18 | N#Cc1ccc(N2CCC(N3CCC(c4nc5ccccc5c(=O)[nH]4)C3)CC2)cn1 (single isomer, unassigned) [Compound 69b] | 100 to 1000 nM | − (− indicates a value of less than 10) | 10 to 100 nM | 10 to 100 nM
19 | N#Cc1ccc(N2CCC(N3CCCC(c4nc5ccccc5c(=O)[nH]4)C3)CC2)cn1 (single isomer, unassigned) [Compound 70a] | 1000 to 10000 nM | + (+ indicates a value of 10 to less than 50) | 100 to 1000 nM | 10 to 100 nM
20 | N#Cc1ccc(N2CCC(N3CCCC(c4nc5ccccc5c(=O)[nH]4)C3)CC2)cn1 (single isomer, unassigned) [Compound 70b] | 100 to 1000 nM | − (− indicates a value of less than 10) | 100 to 1000 nM | 10 to 100 nM
21 | CNC(=O)c1ccc(N2CCC(N3CCCC(F)(c4nc5ccccc5c(=O)[nH]4)C3)CC2)cn1 (single isomer, unassigned) [Compound 71a] | > 10000 nM | − (− indicates a value of less than 10) | 1000 to 10000 nM | 1000 to 10000 nM
22 | CNC(=O)c1ccc(N2CCC(N3CCCC(F)(c4nc5ccccc5c(=O)[nH]4)C3)CC2)cn1 (single isomer, unassigned) [Compound 71b] | > 10000 nM | +++ (+++ indicate a value of at least 100) | 10 to 100 nM | 10 to 100 nM
23 | CCc1ccc(C2CCN(C3CCN(c4ccc(C(=O)NC)nc4)CC3)C2)[nH]c1=O (single isomer, unassigned) [Compound 72a] | 1000 to 10000 nM | +++ (+++ indicate a value of at least 100) | 10 to 100 nM | 10 to 100 nM
24 | CNC(=O)c1ccc(N2CCC(N3CCCC(c4ncc(C(F)(F)F)c(=O)[nH]4)C3)CC2)cn1 (single isomer, unassigned) [Compound 73a] | > 10000 nM | − (− indicates a value of less than 10) | 100 to 1000 nM | 100 to 1000 nM
25 | CNC(=O)c1ccc(N2CCC(N3CCCC(c4ncc(C(F)(F)F)c(=O)[nH]4)C3)CC2)cn1 (single isomer, unassigned) [Compound 73b] | > 10000 nM | ++ (++ indicates a value of 50 to less than 100) | 10 to 100 nM | 10 to 100 nM
26 | N#Cc1ccc(N2CCC(N3CCCC(c4nc5ccccc5c(=O)[nH]4)C3)CC2)nc1 (single isomer, unassigned) [Compound 74a] | 1000 to 10000 nM | + (+ indicates a value of 10 to less than 50) | 100 to 1000 nM | 100 to 1000 nM
27 | N#Cc1ccc(N2CCC(N3CCCC(c4nc5ccccc5c(=O)[nH]4)C3)CC2)nc1 (single isomer, unassigned) [Compound 74b] | 1000 to 10000 nM | ++ (++ indicates a value of 50 to less than 100) | 10 to 100 nM | 10 to 100 nM
28 | CNC(=O)c1ccc(N2CCC(N3CCC(c4nc5cccc(Cl)c5c(=O)[nH]4)C3)CC2)cn1 (single isomer, unassigned) [Compound 85b] | 10 to 100 nM | ++ (++ indicates a value of 50 to less than 100) | < 10 nM | < 10 nM
29 | CNC(=O)c1ccc(N2CCC(N3CCC(c4nc5cccc(C(F)(F)F)c5c(=O)[nH]4)C3)CC2)cn1 (single isomer, unassigned) [Compound 86a] | 100 to 1000 nM | + (+ indicates a value of 10 to less than 50) | 10 to 100 nM | 10 to 100 nM
30 | CNC(=O)c1ccc(N2CCC(N3CCC(c4cc5ccccc5c(=O)[nH]4)C3)CC2)cn1 (single isomer, unassigned) [Compound 91a] | 100 to 1000 nM | +++ (+++ indicate a value of at least 100) | < 10 nM | < 10 nM
31 | CNC(=O)c1ccc(N2CCC(N3CCC(c4cc5ccccc5c(=O)[nH]4)C3)CC2)cn1 (single isomer, unassigned) [Compound 91b] | 100 to 1000 nM | +++ (+++ indicate a value of at least 100) | < 10 nM | < 10 nM
32 | CNC(=O)c1ccc(N2CCC(N3CCC(c4nc5cc(F)ccc5c(=O)[nH]4)C3)CC2)cn1 (single isomer, unassigned) [Compound 92a] | > 10000 nM | + (+ indicates a value of 10 to less than 50) | 100 to 1000 nM | 100 to 1000 nM
33 | CNC(=O)c1ccc(N2CCC(N3CCC(c4nc5cc(F)ccc5c(=O)[nH]4)C3)CC2)cn1 (single isomer, unassigned) [Compound 92b] | 1000 to 10000 nM | +++ (+++ indicate a value of at least 100) | < 10 nM | 10 to 100 nM
